Test results reported in US11713470B2, “Targeted gene therapies for pain and other neuro-related disorders” (University of Pittsburgh—Of the Commonwealth System of …, priority 2017, dated 2023).
Entries after “also recorded” stand apart in the source; their conditions may differ.

Assays:
Format in all cases: in vivo, mouse
mice lacking PSAM4 = experiment: Mechanical and heat sensitivity at baseline and after CFA or sural-SNI in wildtype C57Bl/6 mice lacking PSAM4; conditions: 0.1 mpk i.p.
Procedure: (§1) Mechanical and heat hypersensitivity was tested in adult wildtype male and female C57Bl/6 mice (not injected with mCCK-PSAM4 virus) before and after intraperitoneal injection of (i.p) varenicline (0.1 milligram per kilogram (mpk) (FIG. 13). We also tested these parameters before and 2-5 days after induction of the complete Freund's adjuvant (CFA)-model of inflammatory pain and 7 days after induction of the sural version of the spared nerve injury (SNI) model of neuropathic pain (FIG. 13). Sensitivity to mechanical stimuli was tested by measuring the paw withdrawal threshold to von Frey filaments (PWT) and the paw withdrawal response to a cotton swab (percentage of response) as described previously (Peirs, C. et al. Dorsal Horn Circuits for Persistent Mechanical Pain. Neuron 87, 797-812 (2015)). Heat sensitivity was tested by measuring the withdrawal latency to a radiant heat source using the Hargreaves apparatus (PWL) as described previously (Peirs, C. et al. Dorsal Horn Circuits for Persistent Mechanical Pain. Neuron 87, 797-812 (2015)).

[1] = target: T1, PSAM4 in dorsal horn CCK+ neurons (Homo sapiens, UniProt P23415+P36544, L131G/Q139L/Y217F); experiment: Baseline mechanical and heat sensitivity in mice injected with AAV8 mCCK-PSAM4 virus; conditions: 0.3 mpk i.p., 2 weeks after AAV8 mCCK-PSAM4, 30-60 minutes after drug
T1 sequence (P36544+P23415 fused P36544:L131G/P36544:Q139L/P36544:Y217F): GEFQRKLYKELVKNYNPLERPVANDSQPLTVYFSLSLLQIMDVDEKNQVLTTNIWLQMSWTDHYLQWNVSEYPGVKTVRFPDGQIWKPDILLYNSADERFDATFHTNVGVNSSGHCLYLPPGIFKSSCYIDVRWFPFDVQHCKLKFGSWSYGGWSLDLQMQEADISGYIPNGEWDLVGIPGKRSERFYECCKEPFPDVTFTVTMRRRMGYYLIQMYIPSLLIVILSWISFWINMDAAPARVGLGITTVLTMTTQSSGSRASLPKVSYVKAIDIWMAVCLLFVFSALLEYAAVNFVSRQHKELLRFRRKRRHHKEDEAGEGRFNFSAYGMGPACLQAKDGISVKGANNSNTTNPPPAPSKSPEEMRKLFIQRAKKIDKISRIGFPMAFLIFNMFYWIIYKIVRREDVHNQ
Procedure: (§2) The mouse cholecystokinin (CCK) promoter with an added chimeric intron to drive expression of α7^L131G, Q139L, Y217F GlyR (PSAM4) was packaged into AAV2/8 and injected into the dorsal horn of 3-week-old wildtype C57Bl/6 male and female mice. Injection of AAV into the dorsal horn was performed as described previously (Peirs, C. et al. Dorsal Horn Circuits for Persistent Mechanical Pain. Neuron 87, 797-812 (2015)). See FIG. 11 for a schematic of the plasmid used to produce these rAAV particles. Briefly, a 2.5 kb fragment of the mouse CCK promoter was subcloned upstream of the PSAM4 gene with the chimeric intron (135 bp) located in between.
as §1
Mice were injected unilaterally in the dorsal horn with AAV8 mCCK-PSAM4 virus and tested two weeks later. […] The ipsilateral plantar hindpaw of the mice was injected with CFA and PWTs and response frequencies tested 3 days later in the absence and presence of varenicline (0.3 mpk, i.p.).

[2] = target: T1, PSAM4 in dorsal horn CCK+ neurons; experiment: CFA-induced mechanical allodynia in mice expressing mCCK-PSAM4 in the dorsal horn; conditions: 0.3 mpk i.p., 3 days after CFA
Procedure: as §2, with “between. […]” for “between.”

[3] = target: T1, PSAM4 in dorsal horn CCK+ neurons; experiment: Sural-SNI-induced mechanical allodynia in mice expressing mCCK-PSAM4 in the dorsal horn; conditions: 0.3 mpk i.p., 7 days after sural-SNI
Procedure: as §2, with “between. […]” for “between.”

[4] = uninjured mice without PSAM4, 30-60 minutes after injection

SMILES: c1cnc2cc3c(cc2n1)[C@@H]1CNC[C@H]3C1 [varenicline]
- heat hypersensitivity after CFA (mice lacking PSAM4; mice without PSAM4, 2 days after CFA): no effect
- mechanical hypersensitivity after CFA (mice lacking PSAM4; mice without PSAM4, 3 days after CFA): no effect
- mechanical or heat hypersensitivity after sural-SNI (mice lacking PSAM4; mice without PSAM4, 7 days after sural-SNI): no effect
- baseline PWL (withdrawal latency, Hargreaves) (mice lacking PSAM4; [4]): no effect
- baseline PWT (paw withdrawal threshold to von Frey filaments) (mice lacking PSAM4; [4]): no effect
- baseline response frequency to cotton swab (mice lacking PSAM4; [4]): no effect
- baseline PWL [1]: no effect; also recorded: did not alter
- baseline PWT [1]: no effect; also recorded: did not alter
- baseline percentage response (response frequency to cotton swab) [1]: no effect; also recorded: did not alter
- PWT to von Frey filaments after CFA [2]: markedly reversed
- response frequency to cotton swab after CFA [2]: markedly reversed
- PWT to von Frey filaments after sural-SNI [3]: markedly reversed
